Measured values published in ChEMBL document CHEMBL5154662, “Discovery of BP3 as an efficacious proteolysis targeting chimera (PROTAC) degrader of HSP90 for treating breast cancer” (Eur J Med Chem, 2022).
One block for each compound: values may come before it. Activity calls are given as the source filed them. No cut-off for these calls is given here.

Legend:
[1] = test system: MCF7; assay: Antiproliferative activity against human MCF-7 cells assessed as inhibition of cell proliferation incubated for 72 hrs by MTT assay; format: functional, cell-based; settings: MCF7, 72 h
[2] = test system: MDA-MB-231; assay: Antiproliferative activity against human MDA-MB-231 cells assessed as inhibition of cell proliferation incubated for 72 hrs by MTT assay; format: functional, cell-based; settings: MDA-MB-231, 72 h
[3] = test system: MCF7; assay: Anticancer activity against human MCF7 cells assessed as inhibition of colony formation at 2 to 10 uM measured after 48 hrs by crystal violet staining based assay; format: functional, cell-based; settings: dose 2-10 µM, DDE = dose-dependent effect
[4] = test system: 4T1; assay: Anticancer activity against mouse 4T1 cells assessed as inhibition of cell proliferation measured after 72 hrs by MTT assay; format: functional, cell-based; settings: 4T1, 72 h
[5] = test system: MDA-MB-468; assay: Anticancer activity against human MDA-MB-468 cells assessed as inhibition of cell proliferation measured after 72 hrs by MTT assay; format: functional, cell-based; settings: MDA-MB-468, 72 h
[6] = test system: 4T1; assay: Antitumor activity against female BALB/c mouse xenografted with 4T1 cells assessed as tumor growth inhibition at 60 mg/kg, ip administered daily for 12 days relative to control; format: functional; settings: 4T1, 288 h, time 12 day, read-out: TGI
[7] = biological target: T1, Protein cereblon/Heat shock protein HSP 90-alpha/Heat shock protein HSP 90-beta (Homo sapiens, UniProt P07900+P08238+Q96SW2); assay: Protac activity at CRBN/HSP90 in human MCF7 cells assessed as maximum degradation of HSP90 measured after 6 hrs by western blot analysis relative to control; format: cell-based
[8] = biological target: T1, Protein cereblon/Heat shock protein HSP 90-alpha/Heat shock protein HSP 90-beta; assay: Protac activity at CRBN/HSP90 in human MCF7 cells assessed as reduction in HSP90 protein expression level at 2 uM measured after 6 hrs by western blot analysis; format: cell-based
[9] = biological target: Heat shock protein HSP90 (Homo sapiens, UniProt P07900+P08238); assay: Binding affinity to HSP90 (unknown origin) upto 250 uM by BLI assay; format: protein assay
[10] = Tmax in rat at 15 mg/kg, ip measured after 8 hrs; format: ADME, organism-based; settings: in vivo
[11] = Cmax in rat at 15 mg/kg, ip measured after 8 hrs; format: ADME, organism-based; design: time 8 hrs, dose 15 mg/kg, route ip; settings: in vivo
[12] = AUC in rat at 15 mg/kg, ip measured after 8 hrs; format: ADME, organism-based; design: dose 15 mg/kg, time 8 hrs, route ip; settings: in vivo
[13] = AUCinfinity in rat at 15 mg/kg, ip measured after 8 hrs; format: ADME, organism-based; design: dose 15 mg/kg, time 8 hrs, route ip; settings: in vivo
[14] = Half life in rat at 15 mg/kg, ip measured after 8 hrs; format: ADME, organism-based; settings: in vivo
[15] = test system: 4T1; assay: Antitumor activity against female BALB/c mouse xenografted with 4T1 cells assessed as tumor growth inhibition at 40 mg/kg, ip administered daily for 12 days relative to control; format: functional; settings: 4T1, 288 h, time 12 day, read-out: TGI
[16] = Toxicity in BALB/c mouse assessed as body weight loss at 40 mg/kg, ip administered daily for 12 days measured once every 3 days; format: organism-based; settings: in vivo, 288 h, time 12 day
[17] = biological target: T1, Protein cereblon/Heat shock protein HSP 90-alpha/Heat shock protein HSP 90-beta; assay: Protac activity at CRBN/HSP90 in human MCF7 cells assessed as reduction in HSP90 mRNA expression level at 2 uM followed by cycloheximide addition measured upto 12 hrs by qRT-PCR analysis; format: cell-based
[18] = biological target: T1, Protein cereblon/Heat shock protein HSP 90-alpha/Heat shock protein HSP 90-beta; assay: Protac activity at CRBN/HSP90 in human MCF7 cells assessed as HSP90 degradation measured after 6 hrs by western blot analysis; format: cell-based
[19] = biological target: T1, Protein cereblon/Heat shock protein HSP 90-alpha/Heat shock protein HSP 90-beta; assay: Protac activity at CRBN/HSP90 in human MCF7 cells assessed as reduction in AKT protein expression level at 2 uM measured after 6 hrs by western blot analysis; format: cell-based
[20] = biological target: T1, Protein cereblon/Heat shock protein HSP 90-alpha/Heat shock protein HSP 90-beta; assay: Protac activity at CRBN/HSP90 in human MCF7 cells assessed as reduction in p53 protein expression level at 2 uM measured after 6 hrs by western blot analysis; format: cell-based
[21] = biological target: Heat shock protein HSP 90-alpha (Homo sapiens) (UniProt P07900); assay: Degradation of HSP90alpha in human MCF7 cells at 2 uM measured after 6 hrs by western blot analysis; format: cell-based
[22] = Toxicity in BALB/c mouse assessed as death at 40 mg/kg, ip administered daily for 12 days; format: organism-based; settings: in vivo, 288 h, time 12 day
[23] = test system: 4T1; assay: Antitumor activity against female BALB/c mouse xenografted with 4T1 cells assessed as reduction on tumor weight at 40 mg/kg, ip administered daily for 12 days; format: functional, organism-based; settings: time 12.0 day
[24] = test system: 4T1; assay: Antitumor activity against female BALB/c mouse xenografted with 4T1 cells assessed as reduction on tumor formation at 40 mg/kg, ip administered daily for 12 days; format: functional, organism-based; settings: time 12.0 day
[25] = biological target: T1, Protein cereblon/Heat shock protein HSP 90-alpha/Heat shock protein HSP 90-beta; assay: Protac activity at CRBN/HSP90 in human MCF7 cells assessed as reduction in HSP90 protein expression level at 2 uM followed by cycloheximide addition measured upto 12 hrs by western blot analysis; format: cell-based

T1 sequence (P08238 whole entry, other chains not shown): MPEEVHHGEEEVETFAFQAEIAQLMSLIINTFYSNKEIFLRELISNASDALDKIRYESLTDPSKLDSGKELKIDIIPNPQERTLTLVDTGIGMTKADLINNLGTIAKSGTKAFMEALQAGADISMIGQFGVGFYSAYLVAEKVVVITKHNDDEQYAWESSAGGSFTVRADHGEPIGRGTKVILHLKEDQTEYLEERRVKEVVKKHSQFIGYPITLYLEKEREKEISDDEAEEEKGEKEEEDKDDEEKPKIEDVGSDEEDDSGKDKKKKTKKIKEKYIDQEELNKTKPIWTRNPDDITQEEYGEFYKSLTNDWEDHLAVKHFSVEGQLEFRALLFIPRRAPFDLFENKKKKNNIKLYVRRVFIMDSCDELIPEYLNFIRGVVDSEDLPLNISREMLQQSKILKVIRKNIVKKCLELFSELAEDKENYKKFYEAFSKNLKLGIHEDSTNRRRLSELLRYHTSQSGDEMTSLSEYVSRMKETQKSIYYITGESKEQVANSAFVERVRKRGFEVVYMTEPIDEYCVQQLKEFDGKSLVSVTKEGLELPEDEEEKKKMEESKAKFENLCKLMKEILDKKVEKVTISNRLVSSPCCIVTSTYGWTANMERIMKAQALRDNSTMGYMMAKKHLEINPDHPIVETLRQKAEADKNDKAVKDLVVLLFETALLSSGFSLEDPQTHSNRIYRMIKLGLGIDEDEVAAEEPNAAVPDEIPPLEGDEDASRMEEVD
T1 sequence (Q96SW2 whole entry, other chains not shown): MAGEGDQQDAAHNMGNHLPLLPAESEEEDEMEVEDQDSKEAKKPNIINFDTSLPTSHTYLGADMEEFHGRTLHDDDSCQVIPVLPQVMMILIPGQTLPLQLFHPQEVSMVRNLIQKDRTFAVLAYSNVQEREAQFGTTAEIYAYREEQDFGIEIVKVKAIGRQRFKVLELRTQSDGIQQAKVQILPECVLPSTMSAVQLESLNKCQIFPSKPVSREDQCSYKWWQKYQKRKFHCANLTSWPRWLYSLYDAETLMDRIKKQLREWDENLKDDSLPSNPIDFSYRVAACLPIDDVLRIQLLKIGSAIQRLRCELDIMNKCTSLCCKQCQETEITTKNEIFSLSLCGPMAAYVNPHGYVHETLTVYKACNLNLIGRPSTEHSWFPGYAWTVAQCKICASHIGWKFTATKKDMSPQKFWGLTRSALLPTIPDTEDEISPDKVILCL

IC50 [1]: 1.12 µM | IC50 [2]: 7.72 µM | IC50 [4]: 0.55 µM | IC50 [5]: 2.52 µM
Structure (SMILES): COc1c(C)cnc(Cn2cnc3c(Cl)nc(N)nc32)c1C [BIIB021]
Activity [3]: Dde | inhibition in vivo at 60 mg/kg [6]: 31.8%

IC50 [1]: > 100 µM | IC50 [2]: > 100 µM
Structure (SMILES): COc1cc(C(=O)NCCOCCOCCOCC#Cc2cn(Cc3ncc(C)c(OC)c3C)c3nc(N)nc(Cl)c23)ccc1NC(=O)[C@@H]1N[C@@H](CC(C)(C)C)[C@](C#N)(c2ccc(Cl)cc2F)[C@H]1c1cccc(Cl)c1F

IC50 [1]: 6.12 µM | IC50 [2]: 9.48 µM
Structure (SMILES): COc1c(C)cnc(Cn2cc(C#CCOCCOCCOCCOCCNc3cccc4c3C(=O)N(C3CCC(=O)NC3=O)C4=O)c3c(Cl)nc(N)nc32)c1C (configuration not stated)

IC50 [1]: 0.25 µM | IC50 [2]: 2.2 µM
Structure (SMILES): COc1c(C)cnc(Cn2cc(C#CCCCCNc3cccc4c3C(=O)N(C3CCC(=O)NC3=O)C4=O)c3c(Cl)nc(N)nc32)c1C (configuration not stated)

IC50 [1]: > 100 µM | IC50 [2]: > 100 µM
Structure (SMILES): Nc1cccc2c1C(=O)N(C1CCC(=O)NC1=O)C2=O (configuration not stated) [POMALIDOMIDE]

IC50 [1]: 71.7 µM | IC50 [2]: 65.9 µM
Structure (SMILES): COc1cc(C(=O)NCCOCC#Cc2cn(Cc3ncc(C)c(OC)c3C)c3nc(N)nc(Cl)c23)ccc1NC(=O)[C@@H]1N[C@@H](CC(C)(C)C)[C@](C#N)(c2ccc(Cl)cc2F)[C@H]1c1cccc(Cl)c1F

IC50 [1]: > 100 µM | IC50 [2]: > 100 µM
Structure (SMILES): COc1cc(C(=O)NCCOCCOCCOCCOCCOCCOCC#Cc2cn(Cc3ncc(C)c(OC)c3C)c3nc(N)nc(Cl)c23)ccc1NC(=O)[C@@H]1N[C@@H](CC(C)(C)C)[C@](C#N)(c2ccc(Cl)cc2F)[C@H]1c1cccc(Cl)c1F

Structure (SMILES): COc1c(C)cnc(Cn2cc(C#CCCNc3cccc4c3C(=O)N(C3CCC(=O)NC3=O)C4=O)c3c(Cl)nc(N)nc32)c1C (configuration not stated)
IC50 [1]: 0.63 µM | IC50 [2]: 3.53 µM | Emax [7]: 83.4% | Activity [8]: Active | Kd [9]: 1.18 10^-4M | Activity [3]: Dde | IC50 [4]: 0.61 µM | IC50 [5]: 2.95 µM | Tmax [10]: 1.85 h | Cmax [11]: 260 ng/mL | AUC [12]: 1360 ng·h/mL | AUC [13]: 2080 ng·h/mL | half-life [14]: 4.5 h | inhibition in vivo at 40 mg/kg [15]: 76.4% | Activity [16]: 19.7% | Activity [17]: Active | DC50 [18]: 0.99 µM | Activity [19]: Active | Activity [20]: Active | Activity [21]: Active | Activity [22]: Non-Toxic | Activity [23]: Active | Activity [24]: Active | Activity [25]: Active

IC50 [1]: 5.63 µM | IC50 [2]: 3.87 µM
Structure (SMILES): COc1c(C)cnc(Cn2cc(C#CCOCCOCCOCCOCCOCCNc3cccc4c3C(=O)N(C3CCC(=O)NC3=O)C4=O)c3c(Cl)nc(N)nc32)c1C (configuration not stated)

IC50 [1]: 97.3 µM | IC50 [2]: > 100 µM
Structure (SMILES): COc1cc(C(=O)NCCCC#Cc2cn(Cc3ncc(C)c(OC)c3C)c3nc(N)nc(Cl)c23)ccc1NC(=O)[C@@H]1N[C@@H](CC(C)(C)C)[C@](C#N)(c2ccc(Cl)cc2F)[C@H]1c1cccc(Cl)c1F

IC50 [1]: 0.19 µM | IC50 [2]: 0.44 µM
Structure (SMILES): COc1c(C)cnc(Cn2cc(C#CCOCCNc3cccc4c3C(=O)N(C3CCC(=O)NC3=O)C4=O)c3c(Cl)nc(N)nc32)c1C (configuration not stated)

IC50 [1]: 32.9 µM | IC50 [2]: 72.1 µM
Structure (SMILES): COc1cc(C(=O)NCCOCCOCC#Cc2cn(Cc3ncc(C)c(OC)c3C)c3nc(N)nc(Cl)c23)ccc1NC(=O)[C@@H]1N[C@@H](CC(C)(C)C)[C@](C#N)(c2ccc(Cl)cc2F)[C@H]1c1cccc(Cl)c1F

IC50 [1]: 2.24 µM | IC50 [2]: 4.85 µM
Structure (SMILES): COc1c(C)cnc(Cn2cc(C#CCOCCOCCOCCNc3cccc4c3C(=O)N(C3CCC(=O)NC3=O)C4=O)c3c(Cl)nc(N)nc32)c1C (configuration not stated)

IC50 [1]: 1.45 µM | IC50 [2]: 5.2 µM
Structure (SMILES): COc1c(C)cnc(Cn2cc(C#CCCCNc3cccc4c3C(=O)N(C3CCC(=O)NC3=O)C4=O)c3c(Cl)nc(N)nc32)c1C (configuration not stated)

IC50 [1]: > 100 µM | IC50 [2]: > 100 µM
Structure (SMILES): COc1cc(C(=O)NCCOCCOCCOCCOCCOCC#Cc2cn(Cc3ncc(C)c(OC)c3C)c3nc(N)nc(Cl)c23)ccc1NC(=O)[C@@H]1N[C@@H](CC(C)(C)C)[C@](C#N)(c2ccc(Cl)cc2F)[C@H]1c1cccc(Cl)c1F

IC50 [1]: 37.9 µM | IC50 [2]: > 100 µM
Structure (SMILES): COc1cc(C(=O)NCCC#Cc2cn(Cc3ncc(C)c(OC)c3C)c3nc(N)nc(Cl)c23)ccc1NC(=O)[C@@H]1N[C@@H](CC(C)(C)C)[C@](C#N)(c2ccc(Cl)cc2F)[C@H]1c1cccc(Cl)c1F

IC50 [1]: 3.14 µM | IC50 [2]: 3.88 µM
Structure (SMILES): COc1c(C)cnc(Cn2cc(C#CCOCCOCCOCCOCCOCCOCCNc3cccc4c3C(=O)N(C3CCC(=O)NC3=O)C4=O)c3c(Cl)nc(N)nc32)c1C (configuration not stated)

IC50 [1]: > 100 µM | IC50 [2]: > 100 µM
Structure (SMILES): COc1cc(C(=O)NCCCCC#Cc2cn(Cc3ncc(C)c(OC)c3C)c3nc(N)nc(Cl)c23)ccc1NC(=O)[C@@H]1N[C@@H](CC(C)(C)C)[C@](C#N)(c2ccc(Cl)cc2F)[C@H]1c1cccc(Cl)c1F

IC50 [1]: > 100 µM | IC50 [2]: > 100 µM
Structure (SMILES): COc1cc(C(=O)NCCOCCOCCOCCOCC#Cc2cn(Cc3ncc(C)c(OC)c3C)c3nc(N)nc(Cl)c23)ccc1NC(=O)[C@@H]1N[C@@H](CC(C)(C)C)[C@](C#N)(c2ccc(Cl)cc2F)[C@H]1c1cccc(Cl)c1F

IC50 [1]: 2.46 µM | IC50 [2]: 7.77 µM
Structure (SMILES): COc1c(C)cnc(Cn2cc(C#CCCNc3cccc4c3C(=O)N(C3CCC(=O)N(C)C3=O)C4=O)c3c(Cl)nc(N)nc32)c1C (configuration not stated)

IC50 [1]: 1.98 µM | IC50 [2]: 20.6 µM
Structure (SMILES): COc1c(C)cnc(Cn2cc(C#CCNc3cccc4c3C(=O)N(C3CCC(=O)NC3=O)C4=O)c3c(Cl)nc(N)nc32)c1C (configuration not stated)

IC50 [1]: 0.98 µM | IC50 [2]: 0.76 µM
Structure (SMILES): COc1c(C)cnc(Cn2cc(C#CCOCCOCCNc3cccc4c3C(=O)N(C3CCC(=O)NC3=O)C4=O)c3c(Cl)nc(N)nc32)c1C (configuration not stated)

IC50 [1]: 20.9 µM | IC50 [2]: > 100 µM
Structure (SMILES): COc1cc(C(=O)NCC#Cc2cn(Cc3ncc(C)c(OC)c3C)c3nc(N)nc(Cl)c23)ccc1NC(=O)[C@@H]1N[C@@H](CC(C)(C)C)[C@](C#N)(c2ccc(Cl)cc2F)[C@H]1c1cccc(Cl)c1F
